Test: Inhibition Assay: LOX and LOXL2: Lysyl oxidase (LOX) is an extracellular copper dependent enzyme which oxidizes peptidyl lysine and hydroxylysine residues in collagen and lysine residues in elastin to produce peptidyl alpha-aminoadipic-delta-semialdehydes. […] There are five LOX family members; these are LOX, LOXL1, LOXL2, LOXL3 and LOXL4. LOX and LOXL family members can be acquired as recombinant active proteins from commercial sources, or extracted from animal tissues like bovine aorta, tendons, pig skin; or prepared from cell cultures. The inhibitory effects of the compounds of the present invention were tested against the given LOX-LOXL preparation using a high-throughput coupled colorimetric method (Holt A. and Palcic M., A peroxidase-coupled continuous absorbance plate-reader assay for flavin monoamine oxidases, copper-containing amine oxidases and related enzymes. Nat. Protoc. 2006; 1: 2498-2505). The assay was developed using either 384 or 96 well format. Briefly, in a standard 384 well plate assay 25 μL of a dilution of any of the isoenzymes and orthologues in 1.2 M urea, 50 mM sodium borate buffer (pH 8.2) were added into each well in the presence of 1 μM mofegiline and 0.5 mM pargyline (to inhibit SSAO and MAO-B and MAO-A, respectively). […]

| SMILES | IC50 |
| --- | --- |
| Cc1c(-c2cccc(S(=O)(=O)N(C)C)c2)c2nc(C(=O)N(C)C)ccc2n1C/C(F)=C/CN | > 0.3 µM |
| Cc1c(-c2cccc(S(=O)(=O)N(C)C)c2)c2cc(C(=O)N(C)C)ccc2n1C/C(F)=C/CN | > 0.3 µM |

Reference: ChEMBL document CHEMBL5727850, “Haloallylamine indole and azaindole derivative inhibitors of lysyl oxidases and uses thereof” (2020)
